Assays:
[1] = system: T-Rex 293 cell line SC3 cells lacking increased expression of androgen receptor protein; assay: Cellular growth inhibition, T-Rex 293 SC3 cells without doxycycline, CellTiter-Glo; assay type: cell-based; conditions: T-Rex 293 SC3 cells not exposed to doxycycline, CellTiter-Glo 2.0
How it was run: (§1)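 Cells of clone SC3 are seeded in charcoal-dextran-stripped serum medium with or without 10 ng/mL doxycycline to induce wild-type androgen receptor. After 24 h, serial compound dilutions are added at 0.5% DMSO and incubated 72 h at 37 °C. CellTiter-Glo 2.0 measures viability, giving GI50 values.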

VCaP cells = assay: Cellular growth inhibition assay for VCaP cells, CellTiter-Glo; assay type: cell-based, human; conditions: 72 hours treatment, CellTiter-Glo 2.0
How it was run: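 GI50 values come from four-parameter curve fits of luminescence data normalized to a zero baseline. Compound, in medium with 0.5% DMSO, was added one day after plating and left for 72 h before CellTiter-Glo 2.0 addition.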

[2] = system: T-Rex 293 cell line SC3 cells having increased expression of androgen receptor protein due to exposure to doxycycline; assay: Cellular growth inhibition, T-Rex 293 SC3 cells with doxycycline (androgen receptor induced), CellTiter-Glo; assay type: cell-based; conditions: T-Rex 293 SC3 cells with 10 ng/mL doxycycline (increased androgen receptor expression)
How it was run: as §1

T47D cells = assay: Cellular growth inhibition assay for T47D cells, CellTiter-Glo; assay type: cell-based, human; conditions: 72 hours treatment, CellTiter-Glo 2.0 cell viability
How it was run: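 Cells are plated at 3000/well and allowed 24 h before treatment. Test compound in medium containing 0.5% DMSO is then added, with DMSO-only wells as negative control, and plates are incubated 72 h at 37 °C. ATP luminescence (CellTiter-Glo 2.0) is then fitted to four parameters to derive GI50.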

Structure (SMILES)	GI50 ([1]; 72 h) [nM]	GI50 (VCaP cells; Homo sapiens, VCaP, 72 h) [nM]	GI50 ([2]; 72 h) [nM]	GI50 (T47D cells; Homo sapiens, T47D, 72 h) [nM]	GI50 ([1]; 72 hours) [nM]	GI50 (VCaP cells) [nM]	GI50 ([2]; 72 hours) [nM]	GI50 (T47D cells) [nM]
Cc1sc2c(c1C)C(c1ccc([C@H]3C[C@H]([C@@H]4CCCN(c5ncc(C(=O)N[C@H]6C(C)(C)[C@H](Oc7ccc(C#N)c(Cl)c7)C6(C)C)cn5)C4)C3)cc1)=N[C@@H](Cc1ncco1)c1nnc(C)n1-2 [Compound I-422]	> 3000	< 500	< 500	< 500	–	–	–	–
Cc1sc2c(c1C)C(c1ccc(N3CCC(CNC(=O)c4ncc(C(=O)N[C@H]5C(C)(C)[C@H](Oc6ccc(C#N)c(Cl)c6)C5(C)C)cn4)CC3)cc1)C[C@@H](Cc1ncco1)c1nnc(C)n1-2 (some centres unmarked) [Compound I-276]	> 3000	1500 to 3000	> 3000	> 3000	–	–	–	–
Cc1sc2c(c1C)C(c1ccc(O[C@H]3C[C@@]4(CCCN(c5ncc(C(=O)N[C@H]6C(C)(C)[C@H](Oc7ccc(C#N)c(Cl)c7)C6(C)C)cn5)C4)C3)cc1)=N[C@@H](Cc1ncco1)c1nnc(C)n1-2 [Compound I-193]	500 to 1500	500 to 1500	< 500	< 500	–	–	–	–
Cc1sc2c(c1C)C(c1ccc([C@H]3CCCN(c4ncc(C(=O)N[C@H]5C(C)(C)[C@H](Oc6ccc(C#N)c(Cl)c6)C5(C)C)cn4)C3)cc1)=N[C@@H](Cc1ncco1)c1nnc(C)n1-2 [Compound I-302]	500 to 1500	< 500	< 500	< 500	–	–	–	–
[2H]C([2H])(c1ccc(C2=N[C@@H](Cc3ncco3)c3nnc(C)n3-c3sc(C)c(C)c32)cc1)N1CC[C@]2(CCCN(c3ncc(C(=O)N[C@H]4C(C)(C)[C@H](Oc5ccc(C#N)c(Cl)c5)C4(C)C)cn3)C2)C1 [Compound I-434]	> 3000	< 500	< 500	< 500	–	–	–	–
CCNC(=O)C[C@@H]1N=C(c2ccc(N3CCC(OC4CN(c5ncc(C(=O)N[C@H]6C(C)(C)[C@H](Oc7ccc(C#N)c(Cl)c7)C6(C)C)cn5)C4)CC3)cc2)c2c(sc(C)c2C)-n2c(C)nnc21 [Compound I-118]	500 to 1500	< 500	< 500	< 500	–	–	–	–
Cc1sc2c(c1C)C(c1ccc(NCC3CCN(c4ncc(C(=O)N[C@H]5C(C)(C)[C@H](Oc6ccc(C#N)c(Cl)c6)C5(C)C)cn4)C3)cc1)=NC(Cc1ncco1)c1nnc(C)n1-2 (some centres unmarked) [Compound I-639]	< 500	< 500	< 500	< 500	–	–	–	–
Cc1sc2c(c1C)C(c1ccc(O[C@@H]3CO[C@@]4(CCCN(c5ncc(C(=O)N[C@H]6C(C)(C)[C@H](Oc7ccc(C#N)c(Cl)c7)C6(C)C)cn5)C4)C3)cc1)=N[C@@H](Cc1ncco1)c1nnc(C)n1-2 [Compound I-188]	< 500	< 500	< 500	< 500	–	–	–	–
Cc1sc2c(c1C)C(c1ccc(O[C@H]3CCC4(C3)CN(c3ncc(C(=O)N[C@H]5C(C)(C)[C@H](Oc6ccc(C#N)c(Cl)c6)C5(C)C)cn3)C4)cc1)=N[C@@H](Cc1ncco1)c1nnc(C)n1-2 [Compound I-180]	< 500	< 500	< 500	< 500	–	–	–	–
Cc1sc2c(c1C)C(c1ccc(CCN3CCC4(CCCN(c5ncc(C(=O)N[C@H]6C(C)(C)[C@H](Oc7ccc(C#N)c(Cl)c7)C6(C)C)cn5)C4)C3)cc1)=N[C@@H](Cc1ncco1)c1nnc(C)n1-2 (some centres unmarked) [Compound I-147]	500 to 1500	< 500	< 500	< 500	–	–	–	–
Cc1sc2c(c1C)C(c1ccc([C@H]3C[C@H]([C@H]4CCN(c5ncc(C(=O)N[C@H]6C(C)(C)[C@H](Oc7ccc(C#N)c(Cl)c7)C6(C)C)cn5)C4)C3)cc1)=N[C@H](Cc1ncco1)c1nnc(C)n1-2 [Compound I-418]	< 500	< 500	< 500	< 500	–	–	–	–
Cc1sc2c(c1C)C(c1ccc([C@H]3C[C@H](C[C@@H]4CCCN(c5ncc(C(=O)N[C@H]6C(C)(C)[C@H](Oc7ccc(C#N)c(Cl)c7)C6(C)C)cn5)C4)C3)cc1)=N[C@@H](Cc1ncco1)c1nnc(C)n1-2 [Compound I-403]	–	–	–	–	> 3000	> 3000	< 500	< 500
Cc1sc2c(c1C)C(c1ccc(N3CC4(CCN(c5ncc(C(=O)N[C@H]6C(C)(C)[C@H](Oc7ccc(C#N)c(Cl)c7)C6(C)C)cn5)C4)C3)cc1)=NC(Cc1ncco1)c1nnc(C)n1-2 (some centres unmarked) [Compound I-656]	500 to 1500	< 500	< 500	< 500	–	–	–	–
Cc1sc2c(c1C)C(c1ccc(Cl)cc1)=N[C@H](CC(=O)NCCCCOC1CCN(c3ncc(C(=O)N[C@H]4C(C)(C)[C@H](Oc5ccc(C#N)c(Cl)c5)C4(C)C)cn3)CC1)c1nnc(C)n1-2 [Compound I-21]	> 3000	< 500	< 500	500 to 1500	–	–	–	–
Cc1sc2c(c1C)C(c1ccc(CC3CCC4(C3)CN(c3ncc(C(=O)N[C@H]5C(C)(C)[C@H](Oc6ccc(C#N)c(Cl)c6)C5(C)C)cn3)CCO4)cc1)=N[C@@H](C)c1nnc(C)n1-2 (some centres unmarked) [Compound I-620]	–	–	–	–	< 500	< 500	< 500	500 to 1500
Cc1sc2c(c1C)C(c1ccc(C[C@H]3C[C@@]4(CCCN(c5ncc(C(=O)N[C@H]6C(C)(C)[C@H](Oc7ccc(C#N)c(Cl)c7)C6(C)C)cn5)C4)C3)cc1)=N[C@@H](C)c1nnc(C)n1-2 [Compound I-393]	> 3000	< 500	< 500	> 3000	–	–	–	–
Cc1sc2c(c1C)C(c1ccc(OC3CC4(C3)CC3(CCN(c5cnc(C(=O)N[C@H]6C(C)(C)[C@H](Oc7ccc(C#N)c(Cl)c7)C6(C)C)cn5)CC3)C4)cc1)=N[C@@H](C)c1nnc(C)n1-2 [Compound I-412]	> 3000	> 3000	> 3000	< 500	–	–	–	–
Cc1sc2c(c1C)C(c1ccc(N3CCN(C(=O)c4ncc(C(=O)N[C@H]5C(C)(C)[C@H](Oc6ccc(C#N)c(Cl)c6)C5(C)C)cn4)CC3)cc1)=N[C@H](Cc1ncco1)c1nnc(C)n1-2 [Compound I-341]	500 to 1500	< 500	500 to 1500	500 to 1500	–	–	–	–
COC[C@@H]1N=C(c2ccc(OC3CC4(CCN(c5ncc(C(=O)N[C@H]6C(C)(C)[C@H](Oc7ccc(C#N)c(Cl)c7)C6(C)C)cn5)CC4)C3)cc2)c2c(sc(C)c2C)-n2c(C)nnc21 [Compound I-565]	> 3000	< 500	< 500	1500 to 3000	–	–	–	–
CCNC(=O)C[C@@H]1N=C(c2ccc(N3CCC(CN4CC(N(C)c5ncc(C(=O)N[C@H]6C(C)(C)[C@H](Oc7ccc(C#N)c(Cl)c7)C6(C)C)cn5)C4)CC3)cc2)c2c(sc(C)c2C)-n2c(C)nnc21 [Compound I-128]	> 3000	1500 to 3000	> 3000	1500 to 3000	–	–	–	–
Cc1sc2c(c1C)C(c1ccc(CCCN3CC4(C3)CN(c3ncc(C(=O)N[C@H]5C(C)(C)[C@H](Oc6ccc(C#N)c(Cl)c6)C5(C)C)cn3)C4)cc1)=N[C@@H](Cc1ncco1)c1nnc(C)n1-2 [Compound I-284]	500 to 1500	< 500	< 500	< 500	–	–	–	–
Cc1sc2c(c1C)C(c1ccc(OC[C@H]3CC[C@@]4(CCCN(c5ncc(C(=O)N[C@H]6C(C)(C)[C@H](Oc7ccc(C#N)c(Cl)c7)C6(C)C)cn5)C4)C3)cc1)=N[C@@H](Cc1ncco1)c1nnc(C)n1-2 [Compound I-203]	> 3000	< 500	< 500	< 500	–	–	–	–
Cc1sc2c(c1C)C(c1ccc(C(=O)N(C)CCCc3ncc(C(=O)N[C@H]4C(C)(C)[C@H](Oc5ccc(C#N)c(Cl)c5)C4(C)C)cn3)cc1)=N[C@H](Cc1ncco1)c1nnc(C)n1-2 [Compound I-343]	> 3000	1500 to 3000	1500 to 3000	1500 to 3000	–	–	–	–
Cc1sc2c(c1C)C(c1ccc(OC3CC4(CCN(c5ncc(C(=O)N[C@H]6C(C)(C)[C@H](Oc7ccc(C#N)c(Cl)c7)C6(C)C)cn5)CC4)C3)c(F)c1)=N[C@@H](Cc1ncco1)c1nnc(C)n1-2 [Compound I-456]	> 3000	1500 to 3000	< 500	> 3000	–	–	–	–
Cc1sc2c(c1C)C(c1ccc(OC3CC4(CCN(c5ncc(C(=O)N[C@H]6C(C)(C)[C@H](Oc7ccc(C#N)c(Cl)c7)C6(C)C)cn5)CC4)C3)cc1)=N/C(=C/c1ncco1)c1nnc(C)n1-2 [Compound I-230, N-[3-(3-chloro-4-cyano-phenoxy)-2,2,4,4-tetramethyl-cyclobutyl]-2-[2-[4-[(9E)-4,5,13-trimethyl-9-(oxazol-2-ylmethylene)-3-thia-1,8,11,12-tetrazatricyclo[8.3.0.02,6]trideca-2(6),4,7,10,12-pentaen-7-yl]phenoxy]-7-azaspiro[3.5]nonan-7-yl]pyrimidine-5-carboxamide]	> 3000	< 500	< 500	> 3000	–	–	–	–
Cc1noc2c1-c1ccccc1C(c1ccc(O[C@H]3C[C@]4(CN(c5ncc(C(=O)N[C@H]6C(C)(C)[C@H](Oc7ccc(C#N)c(Cl)c7)C6(C)C)cn5)CCO4)C3)cc1)=N[C@H]2Cc1ncco1 [Compound I-223]	> 3000	> 3000	< 500	> 3000	–	–	–	–

— patent US20260062422A1 (Halda Therapeutics OpCo, Inc., priority 2022, published 2026)
